Test results from patent US20140360376A1, “RECOVERY OF HIGHER ALCOHOLS FROM DILUTE AQUEOUS SOLUTIONS” (GEVO, INC., priority 2007, published 2014).
Where “and” joins values, the source holds several entries; their conditions need not be identical. Identical values can stand only once. Like-named read-outs stand apart in the source and are kept apart here.

Legend:
[1] = Enrichment/extraction of i-BuOH from aqueous solution by contact with 2-heptanone; format: physicochemical; conditions: 25° C.
[2] = Enrichment/extraction of i-BuOH from aqueous solution by contact with decanol; format: physicochemical; conditions: 25° C.
[3] = Enrichment by calcium chloride addition followed by contact with gasoline; format: physicochemical; conditions: for Increase of alcohol concentration in the gasoline phase in the presence of calcium chloride: compared with example 3 (no calcium chloride); for Alcohol Wt % in heavy phase / Alcohol Wt % in light phase / Alcohol Da: gasoline, 15% (w/w) calcium chloride, 24° C.; for Alcohol Da: light/heavy phase
Experimental: (§1) These solutions were then mixed with gasoline. The gasoline used was commercial grade with a 95 octane rating. At equilibrium, phase separation was observed, forming an upper alcohol rich phase (light phase) and a lower alcohol lean phase (heavy phase). Both phases were analyzed for alcohol and water contents. The distribution coefficient of the alcohol was calculated for each experiment by dividing the alcohol concentration in the light phase by the concentration in the heavy phase. All experiments were carried out at 24° C.

[4] = Enrichment by glucose addition followed by contact with gasoline; format: physicochemical; conditions: for Increase of alcohol concentration in the gasoline phase in the presence of glucose: compared with example 3 (no glucose); for Alcohol Wt % in heavy phase / Alcohol Wt % in light phase / Alcohol Da: gasoline, 20% (w/w) glucose, 24° C.; for Alcohol Da: light/heavy phase
Experimental: as §1, with “observed” for “observed,”, “content.” for “contents.”, “phase. The distribution coefficient for water was calculated accordingly. The Enrichment factor was calculated by dividing the distribution coefficient of alcohol by the distribution coefficient of water.” for “phase.”

[5] = for Number of phases: aqueous propanol, 25° C.
Experimental: The number of liquid phases present in each mixture at 25° C. was noted.

[6] = Enrichment of C3-C6 alcohols from aqueous solutions by contact with octane; format: physicochemical; conditions: 24° C.
Experimental: Several aqueous solutions were prepared for each alcohol, differing in their alcohol concentrations, all of which were sub-saturated. […] The phase ratio between the aqueous solution and the solvent differed from one case to the other. Mixing was continued until equilibrium was reached. At equilibrium, phase separation could be observed forming an upper, alcohol-rich phase (light phase) and a lower, alcohol-lean phase (heavy phase). Both phases were analyzed for alcohol and water content. […] The water content of the organic phases was determined by the Karl-Fischer method. These analytical methods were also used for the analyses in the other examples.
The distribution coefficient of the alcohol was calculated for each experiment by dividing the alcohol concentration in the light phase by the alcohol concentration in the heavy phase. Similarly, the distribution coefficient for water was calculated by dividing the water concentration in the light phase by the water concentration in the heavy phase. The enrichment factor was calculated by dividing the distribution coefficient of alcohol by the distribution coefficient of water. In addition, the alcohol to water ratio (w/w) was calculated for the light phase.

[7] = Enrichment of C3-C6 alcohols from aqueous solutions by contact with gasoline; format: physicochemical; conditions: 24° C.
Experimental: The gasoline used was commercial grade with a 95 octane rating. […] Both phases were analyzed for alcohol and water content. The distribution coefficient of the alcohol was calculated for each experiment by dividing the alcohol concentration in the light phase by the concentration in the heavy phase. Similarly, the distribution coefficient for water was calculated by dividing the water concentration in the light phase by the water concentration in the heavy phase. The enrichment factor was calculated by dividing the distribution coefficient of alcohol by the distribution coefficient of water. All experiments were carried out at 24° C.

[8] = Enrichment/extraction of i-BuOH from aqueous solution by contact with tri-butyl phosphate; format: physicochemical; conditions: 25° C.
[9] = Contact of sub-saturated aqueous isobutanol with 3 Angstrom molecular sieve particles; format: physicochemical; conditions: 2 g sub-saturated aqueous isobutanol with 1.5 g of 3 Angstrom molecular sieve particles
Experimental: This example illustrates the isobutanol enrichment from aqueous isobutanol solutions using molecular sieves to adsorb water. A sub-saturated solution of isobutanol in water was prepared. Two grams of this solution were thoroughly mixed with 1.5 g of 3 Angstrom molecular sieve particles in a vial. After mixing, the vial was left to settle.

[10] = Phase separation of 7% butanol or isobutanol solutions by addition of glucose; format: physicochemical; conditions: 7% alcohol, glucose 20% (w/w), 25° C.
Experimental: This example illustrates the induction of phase separation of butanol or isobutanol in water solutions by addition of glucose. […] The light and heavy phases were analyzed for alcohol content for each experiment. All experiments were carried out at 25° C. The distribution coefficient was calculated by division of the concentration of butanol in the light phase by the concentration of butanol in the heavy phase.

[11] = Mutual solubility of isobutanol and water as a function of temperature; format: physicochemical; conditions: isobutanol-water
Experimental: First, 20 g of water were mixed with 20 g isobutanol in closed vials at room temperature. The vials were then mixed at 5, 10, 20, 40, 60 or 80° C. The vials were held at the stated temperature while being mixed until equilibrium was established. Then the samples were separated into light and heavy phases while being held at temperature. The samples from the light and the heavy phases were analyzed by HPLC and by Karl-Fischer titration.

[12] = Phase separation of 4% butanol or isobutanol solutions by addition of calcium chloride; format: physicochemical; conditions: 4% alcohol, calcium chloride 15% (w/w), 25° C.
Experimental: This example illustrates the induction of phase separation of butanol or isobutanol in water solutions by calcium chloride addition. […] The light and heavy phases were analyzed for alcohol content for each experiment. All experiments were carried out at 25° C. The distribution coefficient was calculated by division of the concentration of butanol in the light phase by the concentration of butanol in the heavy phase.

[13] = Phase separation of aqueous t-butanol by addition of glucose; format: physicochemical
Experimental: This example illustrates the induction of phase separation of t-butanol (t-BuOH) in water solution by addition of glucose. An aqueous solution of t-butanol (50% v/v) was prepared at 25° C. and glucose was added to a final concentration of 20% (w/v). […] Both phases were analyzed for t-butanol concentration. The t-BuOH and glucose concentrations in the heavy phase were about 150 g/L and about 45% w/w, respectively. The light phase had about 520 g/L of t-BuOH.

[14] = aqueous i-BuOH heavy phase, equilibrium
[15] = 50% v/v aqueous t-butanol, glucose 20% (w/v), 25° C.

CCCCCC(C)=O [2-Heptanone]
2-Heptanone Wt % in heavy phase [1, 14]: 0.34 Wt % and 0.29 Wt % and 0.40 Wt %

CCCCCCCCCCO [Decanol, decanol]
Decanol Wt % in heavy phase [2, 14]: 0.0043 Wt % and 0.0053 Wt % and 0.0020 Wt %

CCCCCO [PenOH, n-Pentanol]
Increase of alcohol concentration in the gasoline phase in the presence of calcium chloride [3]: greater than 10 fold
Alcohol Wt % in heavy phase [3]: 0.14 Wt %
Alcohol Wt % in light phase [3]: 2.2 Wt %
Alcohol Da [3]: 15
Increase of alcohol concentration in the gasoline phase in the presence of glucose [4]: greater than 10 fold
Alcohol Wt % in heavy phase [4]: 0.16 Wt %
Alcohol Wt % in light phase [4]: 3.4 Wt %
Alcohol Da [4]: 21

CCCO [PrOH, propanol]
Miscibility with water ([5]; any proportion, no additive): fully miscible with water
Number of phases ([5]; CaCl2 9.5%): 1
Number of phases ([5]; CaCl2 15.1%): 2
Number of phases ([5]; Glucose 40%): 1
Number of phases ([5]; Glucose 60%): 2
Number of phases ([5]; Sucrose 40%): 2
Number of phases ([5]; no hydrophilic solute): 1
Alcohol Wt % in heavy phase ([6]; equilibrium): 1.9 Wt % and 5.7 Wt % and 0.66 Wt %
Alcohol Wt % in light phase ([6]; equilibrium): 0.07 Wt % and 0.24 Wt % and 0.03 Wt %
Enrichment factor ([6]; Da/Dw): >80 and >100
Alcohol Wt % in heavy phase ([7]; equilibrium): 5.1 Wt % and 0.61 Wt % and 1.9 Wt %
Alcohol Wt % in light phase ([7]; equilibrium): 0.50 Wt % and 0.08 Wt % and 0.16 Wt %
Enrichment factor ([7]; Da/Dw): >200 and >240 and >160

CC(C)CO [i-BuOH, 2-methyl-1-propanol]
i-BuOH Wt % in heavy phase ([8]; equilibrium): 0.22 Wt % and 1.2 Wt % and 1.9 Wt %
i-BuOH Wt % in light phase ([8]; equilibrium): 1.2 Wt % and 5.6 Wt % and 9.8 Wt %
Enrichment factor ([8]; Da/Dw): 76 and 74 and 82
Distribution coefficient i-BuOH Da ([8]; light/heavy phase): 5.4 and 4.9 and 5.2
Phases observed after settling [9]: two liquid phases
Increase of alcohol concentration in the gasoline phase in the presence of calcium chloride [3]: 4.5 fold
Alcohol Wt % in heavy phase [3]: 0.94 Wt %
Alcohol Wt % in light phase [3]: 3.3 Wt %
Alcohol Da [3]: 3.5
Alcohol in heavy phase (% w/w) [10]: 5.1 % w/w
Alcohol in light phase (% w/w) [10]: 87 % w/w
Concentration in the light phase compared to the starting solution [10]: approximately 12 fold
Distribution coefficient ([10]; light/heavy phase): 17
Increase of alcohol concentration in the gasoline phase in the presence of glucose [4]: 2 fold
Alcohol Wt % in heavy phase [4]: 1.4 Wt %
Alcohol Wt % in light phase [4]: 1.9 Wt %
Alcohol Da [4]: 1.36
Isobutanol Wt % in light phase ([11]; 5° C.): 83.9 Wt %
Isobutanol Wt % in light phase ([11]; 10° C.): 84.0 Wt %
Isobutanol Wt % in light phase ([11]; 20° C.): 83.4 Wt %
Isobutanol Wt % in light phase ([11]; 40° C.): 81.5 Wt %
Isobutanol Wt % in light phase ([11]; 60° C.): 79.1 Wt %
Isobutanol Wt % in light phase ([11]; 80° C.): 76.5 Wt %
Alcohol in heavy phase (% w/w) [12]: 2.9 % w/w
Alcohol in light phase (% w/w) [12]: 91 % w/w
Concentration in the light phase compared to the starting solution [12]: approximately 23 fold
Distribution coefficient ([12]; light/heavy phase): 31
i-BuOH Wt % in heavy phase ([1]; 2-Heptanone, equilibrium): 1.7 Wt % and 2.0 Wt % and 0.44 Wt %
i-BuOH Wt % in light phase ([1]; 2-Heptanone, equilibrium): 5.4 Wt % and 8.4 Wt % and 1.15 Wt %
Enrichment factor ([1]; Da/Dw, 2-Heptanone): 125 and 116 and 155
Distribution coefficient i-BuOH Da ([1]; light/heavy phase, 2-Heptanone): 3.3 and 4.1 and 2.6
Enrichment factor ([2]; Da/Dw, decanol): 116 and 119 and 99
i-BuOH Wt % in heavy phase ([2]; decanol, equilibrium): 1.4 Wt % and 2.2 Wt % and 0.30 Wt %
Distribution coefficient i-BuOH Da ([2]; light/heavy phase, decanol): 5.2 and 5.5 and 3.8

CC(C)(C)O [t-BuOH, 2-methyl-2-propanol]
Enrichment in the light phase compared to the heavy phase (factor) [13, 15]: about 3.5
t-BuOH concentration in the heavy phase [13, 15]: about 150 g/L
t-BuOH concentration in the light phase [13, 15]: about 520 g/L
Miscibility with water ([13]; any proportion, no additive): fully miscible with water
